Data taken from paper PMC5439695 (PLoS ONE, 2017).
pEC50: −log10 of the molar value. Like-named read-outs stand apart in the source and are kept apart here.

What was measured:
[1] = system: HepG2 cells; assay: CellTox Green Cytotoxicity Assay (flor) in HepG2, HepG2[flor]; type: cell-based, human; conditions: HepG2 flor; for pEC50: Homo sapiens, given as negative log-scale values;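 on hepg2 flor emax 0: percent activity versus DMSO-only wells with baseline rescaled to 0%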;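 on hepg2 flor emax 40: percent activity versus DMSO-only wells with baseline rescaled to 0%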
[2] = system: HEK293 cells; conditions: HEK293 glo
[3] = system: HEK293 cells; conditions: HEK293 flor
[4] = system: HepG2 cells; conditions: HepG2 glo
[5] = system: HEK293 and HepG2 cell lines
[6] = system: HEK293 cells; assay: cells; conditions: Homo sapiens
[7] = system: HEK293 cells; assay: cells; conditions: Homo sapiens; remark: listed apart in the source
[8] = system: HepG2 cells; assay: cells; conditions: Homo sapiens
[9] = system: estrogen receptor (ER); conditions: cited from earlier work; for AUC score in Judson 2015: ER antagonist, ToxCast chemicals only, ref Judson 2015

CC(C)=CCC/C(C)=C/CO [Geraniol]
0: hepg2_flor_auc [1] | hepg2_flor_emax_0 ([1]; time point 0) | hepg2_flor_wauc_0 ([1]; time point 0) | hepg2_flor_emax_8 ([1]; time point 8) | hepg2_flor_wauc_8 ([1]; time point 8) | hepg2_flor_emax_16 ([1]; time point 16) | hepg2_flor_wauc_16 ([1]; time point 16) | hepg2_flor_emax_24 ([1]; time point 24) | hepg2_flor_wauc_24 ([1]; time point 24) | hepg2_flor_emax_32 ([1]; time point 32) | hepg2_flor_wauc_32 ([1]; time point 32) | hepg2_flor_emax_40 ([1]; time point 40) | hepg2_flor_wauc_40 ([1]; time point 40) | hek293_glo_auc [2] | hek293_glo_emax_0 ([2]; time point 0) | hek293_glo_wauc_0 ([2]; time point 0) | hek293_glo_emax_8 ([2]; time point 8) | hek293_glo_wauc_8 ([2]; time point 8) | hek293_glo_emax_16 ([2]; time point 16) | hek293_glo_wauc_16 ([2]; time point 16) | hek293_glo_emax_24 ([2]; time point 24) | hek293_glo_wauc_24 ([2]; time point 24) | hek293_glo_emax_32 ([2]; time point 32) | hek293_glo_wauc_32 ([2]; time point 32) | hek293_glo_emax_40 ([2]; time point 40) | hek293_glo_wauc_40 ([2]; time point 40) | hek293_flor_auc [3] | hek293_flor_emax_0 ([3]; time point 0) | hek293_flor_wauc_0 ([3]; time point 0) | hek293_flor_emax_8 ([3]; time point 8) | hek293_flor_wauc_8 ([3]; time point 8) | hek293_flor_emax_16 ([3]; time point 16) | hek293_flor_wauc_16 ([3]; time point 16) | hek293_flor_emax_24 ([3]; time point 24) | hek293_flor_wauc_24 ([3]; time point 24) | hek293_flor_emax_32 ([3]; time point 32) | hek293_flor_wauc_32 ([3]; time point 32) | hek293_flor_emax_40 ([3]; time point 40) | hek293_flor_wauc_40 ([3]; time point 40) | hepg2_glo_auc [4] | hepg2_glo_emax_0 ([4]; time point 0) | hepg2_glo_wauc_0 ([4]; time point 0) | hepg2_glo_emax_8 ([4]; time point 8) | hepg2_glo_wauc_8 ([4]; time point 8) | hepg2_glo_emax_16 ([4]; time point 16) | hepg2_glo_wauc_16 ([4]; time point 16) | hepg2_glo_emax_24 ([4]; time point 24) | hepg2_glo_wauc_24 ([4]; time point 24) | hepg2_glo_emax_32 ([4]; time point 32) | hepg2_glo_wauc_32 ([4]; time point 32) | hepg2_glo_emax_40 ([4]; time point 40) | hepg2_glo_wauc_40 ([4]; time point 40) | information ([5]; any activity in any time point/assay)
-4.417: hepg2_flor_pod_0 ([1]; time point 0) | hepg2_flor_pod_8 ([1]; time point 8) | hepg2_flor_pod_16 ([1]; time point 16) | hepg2_flor_pod_24 ([1]; time point 24) | hepg2_flor_pod_32 ([1]; time point 32) | hepg2_flor_pod_40 ([1]; time point 40) | hek293_glo_pod_0 ([2]; time point 0) | hek293_glo_pod_8 ([2]; time point 8) | hek293_glo_pod_16 ([2]; time point 16) | hek293_glo_pod_24 ([2]; time point 24) | hek293_glo_pod_32 ([2]; time point 32) | hek293_glo_pod_40 ([2]; time point 40) | hek293_flor_pod_0 ([3]; time point 0) | hek293_flor_pod_8 ([3]; time point 8) | hek293_flor_pod_16 ([3]; time point 16) | hek293_flor_pod_24 ([3]; time point 24) | hek293_flor_pod_32 ([3]; time point 32) | hek293_flor_pod_40 ([3]; time point 40) | hepg2_glo_pod_0 ([4]; time point 0) | hepg2_glo_pod_8 ([4]; time point 8) | hepg2_glo_pod_16 ([4]; time point 16) | hepg2_glo_pod_24 ([4]; time point 24) | hepg2_glo_pod_32 ([4]; time point 32) | hepg2_glo_pod_40 ([4]; time point 40)
48: hepg2_flor_time [1] | hek293_glo_time [2] | hek293_flor_time [3] | hepg2_glo_time [4]
inactive: hepg2_flor_bin ([1]; kinetics bin) | hek293_glo_bin ([2]; kinetics bin) | hek293_flor_bin ([3]; kinetics bin) | hepg2_glo_bin ([4]; kinetics bin)
< 4.42: pEC50 ([1]; time point 0, read-out: hepg2_flor_ec50_0) | pEC50 ([1]; time point 8, read-out: hepg2_flor_ec50_8) | pEC50 ([1]; time point 16, read-out: hepg2_flor_ec50_16) | pEC50 ([1]; time point 24, read-out: hepg2_flor_ec50_24) | pEC50 ([1]; time point 32, read-out: hepg2_flor_ec50_32) | pEC50 ([1]; time point 40, read-out: hepg2_flor_ec50_40) | pEC50 ([6]; HEK293, read-out: hek293_glo_ec50_0) | pEC50 ([6]; HEK293, read-out: hek293_glo_ec50_8) | pEC50 ([6]; HEK293, read-out: hek293_glo_ec50_16) | pEC50 ([6]; HEK293, read-out: hek293_glo_ec50_24) | pEC50 ([6]; HEK293, read-out: hek293_glo_ec50_32) | pEC50 ([6]; HEK293, read-out: hek293_glo_ec50_40) | pEC50 ([7]; HEK293, read-out: hek293_flor_ec50_0) | pEC50 ([7]; HEK293, read-out: hek293_flor_ec50_8) | pEC50 ([7]; HEK293, read-out: hek293_flor_ec50_16) | pEC50 ([7]; HEK293, read-out: hek293_flor_ec50_24) | pEC50 ([7]; HEK293, read-out: hek293_flor_ec50_32) | pEC50 ([7]; HEK293, read-out: hek293_flor_ec50_40) | pEC50 ([8]; HepG2, read-out: hepg2_glo_ec50_0) | pEC50 ([8]; HepG2, read-out: hepg2_glo_ec50_8) | pEC50 ([8]; HepG2, read-out: hepg2_glo_ec50_16) | pEC50 ([8]; HepG2, read-out: hepg2_glo_ec50_24) | pEC50 ([8]; HepG2, read-out: hepg2_glo_ec50_32) | pEC50 ([8]; HepG2, read-out: hepg2_glo_ec50_40)

Dodecylphenol
0: AUC score in Judson 2015 [9]
5.05 log10(M)*-1: Cyto(realtime)_max ([5]; POD potency, max over real-time cytotoxicity assays)
4.56 log10(M)*-1: Cyto(realtime)_median ([5]; POD potency, median over real-time cytotoxicity assays)

tetrabutyltin
0.0101: AUC score in Judson 2015 [9]
5.64 log10(M)*-1: Cyto(realtime)_max [5]
5.16 log10(M)*-1: Cyto(realtime)_median [5]
higher than 0.01: ER antagonist AUC score ([9]; pathway-level model using all Tox21/ToxCast ER assays of 1812 ToxCast chemicals)
